# Measurements taken from BindingDB's records for doi:10.1016/j.bmcl.2014.07.007 (Astrazeneca, 2014).
# How the values were obtained:
# [1] = biological target: Phosphatidylinositol 4,5-bisphosphate 3-kinase catalytic subunit beta isoform (Homo sapiens, UniProt P42338); assay: Inhibition of human recombinant PI3Kbeta assessed as PIP3 production by AlphaScreen assay
# [2] = biological target: Phosphatidylinositol 4,5-bisphosphate 3-kinase catalytic subunit alpha isoform (Homo sapiens, UniProt P42336); assay: Inhibition of human recombinant PI3Kalpha assessed as PIP3 production by AlphaScreen assay
# Sequence of Phosphatidylinositol 4,5-bisphosphate 3-kinase catalytic subunit alpha isoform (P42336 whole entry, canonical isoform): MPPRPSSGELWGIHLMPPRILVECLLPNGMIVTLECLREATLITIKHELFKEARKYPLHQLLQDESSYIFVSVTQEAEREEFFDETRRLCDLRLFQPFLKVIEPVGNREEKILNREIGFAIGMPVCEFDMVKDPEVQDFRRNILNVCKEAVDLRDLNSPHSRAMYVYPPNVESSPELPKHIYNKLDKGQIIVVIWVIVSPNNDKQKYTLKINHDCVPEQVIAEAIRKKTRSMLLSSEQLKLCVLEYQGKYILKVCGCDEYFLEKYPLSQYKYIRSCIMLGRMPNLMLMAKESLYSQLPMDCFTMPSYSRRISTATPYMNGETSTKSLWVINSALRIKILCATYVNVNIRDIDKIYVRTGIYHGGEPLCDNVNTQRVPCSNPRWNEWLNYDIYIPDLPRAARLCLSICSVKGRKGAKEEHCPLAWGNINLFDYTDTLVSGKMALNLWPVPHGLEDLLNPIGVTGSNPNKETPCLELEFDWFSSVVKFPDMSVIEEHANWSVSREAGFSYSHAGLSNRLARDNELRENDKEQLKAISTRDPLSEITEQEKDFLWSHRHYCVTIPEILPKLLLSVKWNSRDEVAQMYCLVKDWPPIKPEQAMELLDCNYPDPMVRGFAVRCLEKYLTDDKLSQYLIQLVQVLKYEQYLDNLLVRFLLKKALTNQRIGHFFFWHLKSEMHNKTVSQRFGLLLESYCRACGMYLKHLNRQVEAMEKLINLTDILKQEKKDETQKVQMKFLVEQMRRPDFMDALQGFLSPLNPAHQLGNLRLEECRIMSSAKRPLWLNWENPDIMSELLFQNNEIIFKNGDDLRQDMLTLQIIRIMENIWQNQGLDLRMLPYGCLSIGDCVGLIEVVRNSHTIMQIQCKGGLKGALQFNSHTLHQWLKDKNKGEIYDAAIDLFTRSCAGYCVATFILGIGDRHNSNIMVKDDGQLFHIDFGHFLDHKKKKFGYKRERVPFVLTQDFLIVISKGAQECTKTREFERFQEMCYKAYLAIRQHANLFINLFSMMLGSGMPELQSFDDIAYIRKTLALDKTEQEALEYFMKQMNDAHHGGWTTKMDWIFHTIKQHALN
# Sequence of Phosphatidylinositol 4,5-bisphosphate 3-kinase catalytic subunit beta isoform (P42338 whole entry, canonical isoform): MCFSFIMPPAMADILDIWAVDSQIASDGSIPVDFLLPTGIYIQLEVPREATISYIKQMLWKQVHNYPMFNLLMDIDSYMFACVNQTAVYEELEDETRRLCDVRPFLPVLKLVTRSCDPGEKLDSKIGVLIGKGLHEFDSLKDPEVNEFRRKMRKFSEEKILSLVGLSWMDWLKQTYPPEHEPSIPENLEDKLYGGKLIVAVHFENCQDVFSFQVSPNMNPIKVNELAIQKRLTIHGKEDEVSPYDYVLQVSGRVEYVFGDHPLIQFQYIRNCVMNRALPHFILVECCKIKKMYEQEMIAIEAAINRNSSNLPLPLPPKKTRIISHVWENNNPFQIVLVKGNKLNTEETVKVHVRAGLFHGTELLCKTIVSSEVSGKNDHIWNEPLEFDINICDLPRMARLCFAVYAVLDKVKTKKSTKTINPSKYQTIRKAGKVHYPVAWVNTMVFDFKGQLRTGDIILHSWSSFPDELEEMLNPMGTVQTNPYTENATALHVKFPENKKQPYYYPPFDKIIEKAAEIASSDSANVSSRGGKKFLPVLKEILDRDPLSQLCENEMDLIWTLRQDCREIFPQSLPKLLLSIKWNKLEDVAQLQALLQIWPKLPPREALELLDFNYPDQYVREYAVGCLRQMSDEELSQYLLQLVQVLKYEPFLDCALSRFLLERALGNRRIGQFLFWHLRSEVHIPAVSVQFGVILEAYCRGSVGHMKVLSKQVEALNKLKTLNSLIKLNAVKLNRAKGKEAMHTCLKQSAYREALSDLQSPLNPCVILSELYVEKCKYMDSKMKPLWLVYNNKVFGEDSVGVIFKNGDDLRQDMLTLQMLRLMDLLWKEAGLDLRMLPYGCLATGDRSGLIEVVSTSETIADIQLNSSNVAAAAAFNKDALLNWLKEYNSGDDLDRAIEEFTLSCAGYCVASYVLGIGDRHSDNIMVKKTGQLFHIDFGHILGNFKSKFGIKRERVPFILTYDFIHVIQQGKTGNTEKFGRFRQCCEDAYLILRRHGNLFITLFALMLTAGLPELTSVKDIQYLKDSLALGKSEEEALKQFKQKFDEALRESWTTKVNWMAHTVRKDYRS
SMILES,IC50 [1],IC50 [2]
Cc1cc(C(C)Nc2cccc(C(=O)O)c2)c2nc(N3CCOCC3)cc(=O)n2c1 (centres undefined),4800 nM,12100 nM
Cc1cccc(OC(C)c2cc(C(=O)N(C)CCO)cn3c(=O)cc(N4CCOCC4)nc23)c1 (centres undefined),180 nM,9400 nM
Cc1cc(C(C)Nc2ccccc2-c2nnn[nH]2)c2nc(N3CCOCC3)cc(=O)n2c1 (centres undefined),51 nM,1410 nM
CC(Nc1ccccc1)c1cc(C(=O)NCCN2CCNCC2)cn2c(=O)cc(N3CCOCC3)nc12 (centres undefined),76 nM,4800 nM
CC(Nc1ccccc1)c1cc(C(=O)N2CCOCC2)cn2c(=O)cc(N3CCOCC3)nc12 (centres undefined),140 nM,6900 nM
Cc1ccccc1OC(C)c1cc(C(=O)N(C)CCO)cn2c(=O)cc(N3CCOCC3)nc12 (centres undefined),110 nM,1300 nM
CC(Oc1ccccc1F)c1cc(C(=O)N(C)CCO)cn2c(=O)cc(N3CCOCC3)nc12 (centres undefined),660 nM,3400 nM
Cc1cc(C(C)Nc2ccccc2S(=O)(=O)O)c2nc(N3CCOCC3)cc(=O)n2c1 (centres undefined),30 nM,330 nM
CC(Nc1ccccc1)c1cc(C(=O)N(C)CCO)cn2c(=O)cc(N3CCOCC3)nc12 (centres undefined),58 nM,2200 nM
Cc1cc(C(C)Nc2cc(Cl)ccc2C(=O)O)c2nc(N3CCOCC3)cc(=O)n2c1 (centres undefined),31 nM,1460 nM
CC(Nc1ccccc1)c1cc(C(=O)N(C)CC(=O)O)cn2c(=O)cc(N3CCOCC3)nc12 (centres undefined),340 nM,3800 nM
COc1cccc(OC(C)c2cc(C(=O)N(C)CCO)cn3c(=O)cc(N4CCOCC4)nc23)c1 (centres undefined),47 nM,4500 nM
CC(Oc1cccc(C#N)c1)c1cc(C(=O)N(C)CCO)cn2c(=O)cc(N3CCOCC3)nc12 (centres undefined),1700 nM,8200 nM
Cc1c(F)cccc1OC(C)c1cc(C(=O)N(C)CCO)cn2c(=O)cc(N3CCOCC3)nc12 (centres undefined),46 nM,600 nM
CC(Nc1ccccc1)c1cc(C(=O)NCCN(C)C)cn2c(=O)cc(N3CCOCC3)nc12 (centres undefined),35 nM,2300 nM
CC(Nc1ccccc1)c1cc(C(=O)N(C)C)cn2c(=O)cc(N3CCOCC3)nc12 (centres undefined),68 nM,2500 nM
CC(Oc1ccccc1)c1cc(C(=O)N(C)CCO)cn2c(=O)cc(N3CCOCC3)nc12 (centres undefined),190 nM,10100 nM
COc1ccccc1OC(C)c1cc(C(=O)N(C)CCO)cn2c(=O)cc(N3CCOCC3)nc12 (centres undefined),400 nM,2500 nM
CC(Nc1ccccc1)c1cc(C(=O)O)cn2c(=O)cc(N3CCOCC3)nc12 (centres undefined),59 nM,610 nM
Cc1cc(OC(C)c2cc(C(=O)N(C)CCO)cn3c(=O)cc(N4CCOCC4)nc23)ccc1F (centres undefined),200 nM,
